# Source: patent US6638966B2 (University of Iowa Research Foundation, priority 2000, dated 2003)
# Legend:
# [1] = Anesthetic effect compared with melatonin; details: in vivo
# [2] = Solubility of melatonin in 1-methyl-2-pyrrolidinone/propylene glycol/water solvent; format: physicochemical; details: solvent: 1 volume 1-methyl-2-pyrrolidinone, 1 volume propylene glycol, 2 volumes water
# From the text: The volume ratios here expressed are preferred but generally can be within the range of 25% or less by volume of 1-methyl-2-pyrrolidinone.
# [3] = tested on: male Sprague-Dawley rats; assay: Anesthetic effect of melatonin given through a jugular catheter to rats (Intralipid and cyclodextrin preparations); format: in vivo, rat; details: for anesthetic effect (righting reflex) / anesthetic effect (righting reflex, eyelash reflex, hind paw pressure): 50 mg/ml
# Procedure: All experiments were carried out in male Sprague-Dawley rats (300-350 g). Rats were maintained on a 12 hour light/12 hour dark cycle with free access to food and water. All surgical procedures were performed under sterile conditions (skin preparation, sterile filed drape, gloves, mask, etc.). All instruments and materials were ethylene oxide sterilized. Non-fasting adult male Sprague Dawley rats (˜300 gm) were anesthetized with halothane in oxygen and weighed. The hair over the ventral neck and over the back (between the scapulae) was removed with an electric razor. In the supine position the ventral neck was washed with povidone-iodine, followed by a 3-cm skin incision, just left of mid-line. All bleeding points were cauterized. Both the left jugular vein and left common carotid artery were isolated via blunt dissection. The left jugular vein was cannulated with a heparinized (20 U/ml) saline-filled silastic catheter (0.012-in ID, 0.025-in OD) advanced ˜3-cm into the right atrium. The jugular catheter was secured to the vein with 4-0 silk at the point of insertion, as well as at the rostral jugular ligature. After implantation of intravascular catheters, rats were housed in individual stainless steel cages. […] Crystalline Melatonin powder was obtained from Sigma (Sigma Chemical Co. St. Louis, Mo.).
# [4] = tested on: rats; assay: Cumulative i.v. doses: indices of anesthesia in rats (righting reflex, grip strength, eyelash reflex, paw withdrawal threshold); format: in vivo, rat; details: for estimated ED95 (and 95% CI) for loss of righting reflex: cumulative i.v. injection of divided doses; for effect on righting reflex, grip strength and eyelash reflex: three cumulative i.v. doses about 1 min apart: 6.67 mg/kg thiopental, 3.3 mg/kg propofol, 70 mg/kg melatonin
# Procedure: (§1) After the final cumulative dose, measurements of anesthesia end-points were made at fixed intervals for an additional 20 minutes. […] Measurements of anesthesia end-points were made in these rats at fixed intervals for 20 minutes. Righting reflex was scored on a four-point scale (1=immediate/brisk, both feet under the rat; 2=complete, but slower than normal; 3=slow, feet not placed under body; and 4=absent). The threshold pressure (mm Hg) at which the rat withdrew or vocalized after pinch of one hindpaw was measured. For paw pinch, a subminiature, very low profile load cell Omega part number LCKD-1KG, measurement range of 0-1 kg) (OMEGA Engineering, INC., Stamford, Conn.) was used to measure the amount of pressure applied to the rat's paw. The action of compressing the load cell between the faces of the sponge clamp assembly results in a change in impedance within the load cell, and this in turn, was then converted to mm Hg pressure by the monitor. The presence or absence of eyelash reflex was noted on a three-point scale (1=normal, 2=weak; and 3=absent). The strength of grip by the forepaws was determined on a four-point scale (0=absent, 1=weak, 2=moderate and 3=strong).
# (§2) Thiopental was purchased from Abbott Laboratories (Northern Chicago, Ill.). Propofol was purchased from Zeneca Pharmaceuticals (Wilmington, Del.). […] Thiopental and propofol were dissolved in saline and Intralipid™ respectively. […] For the bolus injections, the volume of drug injected ranged from 0.6 to 0.75 ml.
# [5] = tested on: rats; assay: Single bolus i.v. injection: time course of indices of anesthesia in rats; format: in vivo, rat; details: for time for which loss of righting reflex and grip strength was maximal: single i.v. bolus: 10 mg/kg propofol; for time for which loss of righting reflex and grip strength was maximal / effect on paw withdrawal threshold / effect on righting reflex and grip strength: 275 mg/kg melatonin; for effect on paw withdrawal threshold / effect on righting reflex and grip strength / time by which loss of righting reflex and grip strength resolved: single i.v. bolus: 20 mg/kg thiopental, 10 mg/kg propofol; for time by which loss of righting reflex and grip strength resolved: 275 mg/kg melatonin (near baseline values)
# Procedure: as §1, §2
# [6] = tested on: rats; details: rat, in vivo, iv
# [7] = tested on: patients; details: low-level doses sublingually, British Journal of Anesthesia 82(6):875-80(1999); cited from earlier work
# [8] = Rat 1, 315 mg/kg, in 40% cyclodextrin
# [9] = Rat 2, 374 mg/kg, in 40% cyclodextrin
smiles,measurement,setting,value
COc1ccc2[nH]c(C(F)(F)F)c(CCNC(C)=O)c2c1 [2-trifluoromethylmelatonin],anesthetic effect relative to melatonin,[1],substantially more active in anesthetic effect than melatonin itself
"COc1ccc2[nH]cc(CCNC(C)=O)c2c1 [melatonin, N-acetyl-5-methoxytryptamine]",concentration to which melatonin can be dissolved,[2],≤ 300000 µg/mL
same,anesthetic effect (righting reflex),"[3]; Rat 1, 250 mg/kg followed about 1 minute later by 65 mg/kg, Intralipid + Ringer's Lactate",very drugged but did not lose righting reflex
same,anesthetic effect (righting reflex),"[3]; Rat 1, 315 mg/kg, cyclodextrin 40% + Intralipid",moves slowly but no loss of righting reflex
same,"anesthetic effect (ptosis, eye blink, paw pinch)",[3]; [8],"ptosis, loss of eye blink response and loss of paw pinch response to a pressure of 60 mmHg"
same,time for which the righting reflex was lost,[3]; [8],27 min
same,"anesthetic effect (righting reflex, eyelash reflex, hind paw pressure)","[3]; Rat 2, 250 mg/kg, Intralipid + Ringer's Lactate",loss of righting and eyelash reflexes and inability to pull his hind paw in response to pressure applied to it
same,"anesthetic effect (ptosis, eye blink)",[3]; [9],ptosis and loss of eye blink response
same,time for which the righting reflex was lost,[3]; [9],15 min
same,paw pinch response,"[3]; Rat 2, 374 mg/kg, in 40% cyclodextrin, pressure of 60 mmHg",pulling his paw without vocalization
same,anesthetic effect (righting reflex),"[3]; Rat 2, 460 mg/kg, cyclodextrin 40% + Intralipid",loss of righting reflex
same,"anesthetic effect (righting reflex, eyelash reflex, hind paw pressure)","[3]; Rat 3, 320 mg/kg, Intralipid + Ringer's Lactate",loss of righting and eyelash reflexes and inability to pull his hind paw in response to pressure applied to it
same,"anesthetic effect (righting reflex, eyelash reflex, hind paw pressure)","[3]; Rat 4, 370 mg/kg, Intralipid + Ringer's Lactate",loss of righting and eyelash reflexes and inability to pull his hind paw in response to pressure applied to it
same,effect on paw withdrawal threshold,[4]; cumulative i.v. doses of 70 mg/kg,dose-dependently increased paw withdrawal threshold
same,estimated ED95 (and 95% CI) for loss of righting reflex,[4],312 (205-476) mg/kg
same,doses at which the increase in paw withdrawal threshold was apparent,[4]; i.v.,≥ 140 mg/kg
same,"effect on righting reflex, grip strength and eyelash reflex",[4],"progressive loss of righting reflex and grip strength, but did not appreciably blunt the eyelash reflex"
same,time for which the increase in paw withdrawal threshold persisted,[5]; single i.v. bolus 275 mg/kg,at least 20 min
same,time for which loss of righting reflex and grip strength was maximal,[5],5 min
same,effect on paw withdrawal threshold,[5],increased paw withdrawal threshold as compared to vehicle
same,effect on righting reflex and grip strength,[5],immediate loss of righting reflex and grip strength
same,time by which loss of righting reflex and grip strength resolved,[5],≤ 15 min
same,toxic side effects,[6],without causing toxic side effects
same,anxiety and sedation before operation,[7],significant decrease in anxiety levels and an increase in levels of sedation before operation
CC(C)c1cccc(C(C)C)c1O [propofol],estimated ED95 (and 95% CI) for loss of righting reflex,[4],14.9 (6.4-34.9) mg/kg
same,"effect on righting reflex, grip strength and eyelash reflex",[4],"progressive loss of righting reflex, grip strength and eyelash reflex"
same,time for which loss of righting reflex and grip strength was maximal,[5],5 min
same,effect on paw withdrawal threshold,[5],significant increase in paw withdrawal threshold of similar duration
same,effect on righting reflex and grip strength,[5],immediate loss of righting reflex and grip strength
same,time by which loss of righting reflex and grip strength resolved,[5],≤ 10 min
CCCC(C)C1(CC)C(=O)NC(=S)NC1=O (stereo not drawn) [thiopental],estimated ED95 (and 95% CI) for loss of righting reflex,[4],23.8 (15.4-36.7) mg/kg
same,"effect on righting reflex, grip strength and eyelash reflex",[4],"progressive loss of righting reflex, grip strength and eyelash reflex"
same,time at which loss of righting reflex and grip strength was maximal,[5]; single i.v. bolus 20 mg/kg,1 min
same,effect on paw withdrawal threshold,[5],not accompanied by a change in paw withdrawal threshold
same,effect on righting reflex and grip strength,[5],immediate loss of righting reflex and grip strength
same,time by which loss of righting reflex and grip strength resolved,[5],≤ 15 min
